According to PubChem BioAssay (NCI):
Where “and” joins values, the source holds several entries; their conditions need not be identical. Identical values can stand only once.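 Where inhibition never reached the appropriate level, the endpoint shown equals the highest concentration tested. Otherwise, values were interpolated linearly from a five-concentration, 48-hour dose response in 96-well plates. At the GI50, growth is halved. TGI denotes the concentration required for complete inhibition of growth.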

The molecules below were run on MDA-MB-468 breast (assay: DTP human tumour cell line panel, 48 h).
`CN1CCN(Cc2ccc(NC(=O)c3cncc(C#Cc4ccc(N)nc4)c3)cc2C(F)(F)F)CC1` showed a GI50 of 1010 nM and a TGI of 4.3 µM.
Work on `CCOC(=O)N1CCC(N=C2CSc3nnc(-c4cc(C(F)(F)F)cc(C(F)(F)F)c4)n3N2)CC1` yielded a GI50 of 1740 nM and a TGI of 4.67 µM.
`CC(C)[C@@H](C(=O)O[C@@H]1/C=C/C(=O)O[C@@H](C)CCC/C=C/[C@@H]2C[C@H](O)C[C@H]21)N(C)C` gave a GI50 of 1530 nM and a TGI of 6.18 µM.
`COc1c(C(N)=O)cc(-c2ccc(Cl)cc2)cc1-c1ccc(S(N)(=O)=O)cc1` showed a GI50 of 4330 nM and a TGI of 11.1 µM.
In the case of `O=C(Nc1cccc([N+](=O)[O-])c1)c1cccc(C(=O)Nc2cccc([N+](=O)[O-])c2)c1`, the GI50 is reported as over 100000 nM and the TGI is reported as over 100 µM.
In the case of `CCCCCCCCN(CCCCCCCC)CC(O)c1cc(-c2ccccc2)nc2ccc(OC)cc12` (configuration not stated), the GI50 is reported as 39200 nM and the TGI is reported as over 100 µM.
`Cc1ccsc1C(NC(=O)c1ccccc1)c1cc(Cl)c2cccnc2c1O` (configuration not stated) gave a GI50 of 602 nM and a TGI of 5.63 µM.
`Oc1c(C(c2ccc(F)cc2)N2CCCCC2)ccc2cncnc12` (configuration not stated) gave a GI50 of 494 nM and a TGI of 8.47 µM.
In the case of `O=C1C2=C(C(=O)c3ccccc31)C(O)(S(=O)(=O)O)C(O)(S(=O)(=O)O)C1N=CC=CC21` (configuration not stated), the GI50 is reported as 10600 nM and 4290 nM and the TGI is reported as 37.5 µM and 21.2 µM.
Work on `Clc1cnc(Nc2ccc(OCCN3CCCC3)cc2)nc1NCc1ccco1` yielded a GI50 of 2370 nM and a TGI of 5.1 µM.
For `CN1C(=O)N(C)C2C1NC(=S)N2/N=C/C=C/c1ccccc1[N+](=O)[O-]` (configuration not stated), the GI50 was 431 nM and the TGI was 88.2 µM.
`O=C(Nc1nc2c(C(F)(F)F)cccc2s1)c1cc(Cl)ccc1O` gave a GI50 of 226 nM and a TGI of 0.749 µM.
With `CC1Cc2c(Cl)ncnc2N(C)c2ccccc21` (configuration not stated) the GI50 was 1600 nM and the TGI was 6.81 µM.
`Cc1[nH]nc(C(F)(F)F)c1Cc1sc2c(c1C(=O)N1C[C@](C)(O)CO1)c(=O)n(C)c(=O)n2C(C)C` was tested, and the GI50 was over 100000 nM and the TGI was over 100 µM.
`CCC[CH2][Sn]1([CH2]CCC)[O]C(=O)c2cccc([N+](=O)[O-])c2C(=O)[O]1` showed a GI50 of 153 nM and a TGI of 0.449 µM.
With `COc1ccc2c3ccnc(C(F)(F)F)c3n(CCCCN)c2c1` the GI50 was 3220 nM and the TGI was 13.4 µM.
`CCOC(=O)C1=C(Nc2ccc(OC)cc2)C(N)=NC1=N` gave a GI50 of 474 nM and a TGI of over 100 µM.
`CC1=CC2(C)/C=C(C)/C=C\CC(O)/C=C3/C=CC(=C4C(=O)OC2(CC1C)C4=O)OC3` (configuration not stated) was tested, and the GI50 was 1180 nM and the TGI was 2.85 µM.
`C[C@@H]1CC[C@@H]2[C@@H]1[C@H](OC(=O)/C=C/C1CCCCC1)[C@]1(C3CCCCC3)C[C@@H](OC(=O)CO)[C@@]2(C)O1` was tested, and the GI50 was 13400 nM and the TGI was 27.5 µM.
In the case of `NC(=Nc1ccccc1)N/N=C/c1c[nH]c2ccccc12`, the GI50 is reported as 501 nM and the TGI is reported as 1.87 µM.
`O=C1/C=C/[C@@H](O)[C@@H]2C[C@@H](O)C[C@H]2/C=C/CCC[C@H](CCO)O1` showed a GI50 of 23.9 nM and a TGI of 0.0757 µM.
In the case of `Cc1nnc(N/N=C/c2ccc([N+](=O)[O-])o2)[nH]c1=O`, the GI50 is reported as 749 nM and the TGI is reported as 12.2 µM.
`Cc1ccc2sc3c(NCCCN)nc4ccccc4c3c(=O)c2c1` was tested, and the GI50 was 1670 nM and the TGI was 3.36 µM.
In the case of `CC(C)(C)NCC(O)c1ccccc1Cl` (configuration not stated), the GI50 is reported as over 100000 nM and the TGI is reported as over 100 µM.
`COc1cc(OC)c(/C=C/C(=O)c2c(OC)cc(OC)cc2OC)c(OC)c1` showed a GI50 of 700 nM and a TGI of 4.55 µM.
`Cn1nc(C(F)(F)F)cc1-c1cc(Cl)c(OCc2ccc(Cl)cc2)c(-c2ccc(Cl)c(C(F)(F)F)c2)c1O` showed a GI50 of 833 nM and a TGI of 4.97 µM.
With `CCN1CCN(c2ccc(NC(=O)Nc3nc4ccc(-c5ccccc5OC)cc4s3)cc2)CC1` the GI50 was 2170 nM and the TGI was 4.03 µM.
`COc1cc2ncnc(Oc3ccc(NC(=O)Nc4ccc(CN5CCOCC5)c(C(F)(F)F)c4)c4ccccc34)c2cc1OC` gave a GI50 of 249 nM and a TGI of 1.85 µM.
`c1ccc2c(N=NSc3ncnc4nc[nH]c34)c3ccccc3nc2c1` gave a GI50 of 549 nM and a TGI of 2.34 µM.
In the case of `Nc1nc(-c2ccc3c(c2)/C(=C\c2cc(Br)c(O)c(Br)c2)C(=O)N3)cs1`, the GI50 is reported as 6500 nM and the TGI is reported as over 22.8 µM.
For `CCC(=O)NC1=C(Cl)C(=O)C(NC(=O)CC)=C(Cl)C1=O`, the GI50 was 1720 nM and the TGI was 3.66 µM.
For `COc1ccc(C(=O)/C=C/c2ccc(OCc3cccc(C(F)(F)F)c3)c(OC)c2)cc1OC`, the GI50 was 107000 nM and the TGI was over 1000 µM.
With `N#C/C(=C\c1ccc[nH]1)c1cc(-c2ccc(Cl)cc2)nn1-c1ccccc1` the GI50 was 269 nM and the TGI was 2.23 µM.
With `Cc1c(C(=O)Nc2ccc(N3C[C@@H](C)O[C@@H](C)C3)nc2)cccc1-c1ccc(OC(F)(F)F)cc1` the GI50 was 3110 nM and 5620 nM and the TGI was 19.2 µM and 31.7 µM.
With `C=CCc1c(O)c(C(=O)/C=C/c2ccc(Cl)cc2)c(OC)c2ccoc12` the GI50 was 2270 nM and the TGI was 5.84 µM.
`Cc1cc(OCc2ccc(C(F)(F)F)cc2)c2c(c1)C(=O)C=C(NCCN1CCCC1)C2=O` showed a GI50 of 2000 nM and a TGI of 4.55 µM.
For `COC(=O)Nc1nc2ccc(C(=O)c3cccc(I)c3)cc2[nH]1`, the GI50 was 59.8 nM and the TGI was 2.14 µM.
Molecule `CCOP(=O)(OCC)/C(=C/n1c(=S)[nH]c2ccccc21)C(=O)OC` has a GI50 of over 100000 nM and a TGI of over 100 µM.
`CCN(CC)CCOc1nc2ccccc2c2c1-c1ccc(OC)cc1C2=O` showed a GI50 of 857 nM and a TGI of 3.26 µM.
For `CCN1CCN(C(=O)[C@]23CC[C@@H](C)[C@H](C)[C@@H]2C2=CC[C@@H]4[C@@]5(C)CCC(=O)C(C)(C)[C@@H]5CC[C@@]4(C)[C@]2(C)CC3)CC1`, the GI50 was 931 nM and the TGI was 2.32 µM.
`COc1nn(C)cc1Nc1nccc(-c2c[nH]c3c(NC(=O)[C@@H](C)N4CCN(C)CC4)cccc23)n1` was tested, and the GI50 was 25000 nM and the TGI was 67.8 µM.
